Assay: Stability of formulations containing testosterone in containers of different material (HPLC)
Type: physicochemical
Method: As an example for the aforementioned considerations in table 1 are shown the results of tests investigating the stability of formulations containing the steroid hormone testosterone in containers of different material.
The term “remaining drug after storage” is the amount of testosterone remaining in the formulation after storage for 22 hours. The remaining drug was measured by HPLC technique.

For `C[C@]12CC[C@H]3[C@@H](CCC4=CC(=O)CC[C@@]43C)[C@@H]1CC[C@@H]2O` [testosterone], the “Remaining drug after storage (%)” value (Methanolic formulation, primary packaging material Glass, storage for 22 hours) was 100%, the “Remaining drug after storage (%)” value (Oil-based formulation, primary packaging material Glass, storage for 22 hours) was “≈80%” and the “Remaining drug after storage (%)” value (Oil-based formulation, primary packaging material LDPE + TiO2, storage for 22 hours) was 100%. The “Remaining drug after storage (%)” value (Oil-based formulation, primary packaging material LDPE, storage for 22 hours) was “≈30%” and the “Remaining drug after storage (%)” value (Oil-based formulation, primary packaging material PP, storage for 22 hours) was “≈50%”.

Source: US8609043B2, “Use of a container of an inorganic additive containing plastic material” (M & P Patent Aktiengesellschaft, priority 2001, dated 2013)
